Measured values: US10688092B2, “Compositions and methods of using nintedanib for improving glaucoma surgery success” (Cloudbreak Therapeutics, LLC, priority 2016, dated 2020)

How the values were obtained:
[1] = tested on: rabbit model of glaucoma filtration surgery; experiment: Rabbit glaucoma filtration surgery model; format: in vivo, New Zealand White rabbits
Source text: The rabbit glaucoma surgery model is used to illustrate use of the presently disclosed methods for improving the success of glaucoma filtration surgery. Specifically, an established rabbit model of glaucoma filtration surgery would be used to study the effects of nintedanib 0.2% solution on the wound-healing events after surgery. The surgical procedure is as described in Wong et al. (Wong et al. Invest Ophthalmol Vis Sci. 2003; 44(3):1097-1103). Briefly, a partial thickness 8-0 silk corneal traction suture is placed superiorly, and the eye pulled down. A fornix based conjunctival flap is raised, after which a blunt dissection of the subconjunctival space is performed of approximately 5 mm along the limbus and 8 mm posteriorly. A microvitreoretinal (MVR) blade is used to make a partial-thickness scleral incision 3 to 4 mm behind the limbus, and a scleral tunnel to the corneal stroma is fashioned. A 22-gauge, 25-mm intravenous cannula (Venflon 2; Beckton Dickinson, Oxford, UK) is passed through a scleral tunnel anteriorly until the cannula needle is visible in the clear cornea. Entry into the anterior chamber is made with a cannular needle, which is then withdrawn as the cannula is advanced to the mid-pupillary area. The cannula is trimmed and beveled at its scleral end so that it protrudes 1 mm from the insertion point, and a 10-0 nylon suture is placed to fix the tube to the scleral surface. The conjunctival incision is closed with two interrupted sutures and a central, mattress-type 10-0 nylon suture attached to a needle (B/V 100-4; Ethicon) to give a water-tight closure. One drop each of guttae chloramphenicol and Betnesol-N(Glaxo Wellcome, Uxbridge, UK) ointment is instilled at the end of surgery.
Twenty female New Zealand White rabbits (2-2.4 kg, 12-14 weeks old; Charles River) would be acclimatized for 5 days before the experiments start. Glaucoma surgery would be performed on the left eye as described. After surgery, the rabbits would be arranged into two groups and one group would be treated with vehicle and another with nintedanib 0.2% solution. Treatments would begin immediately after surgery and the treatment would be TID for 2 weeks. The survival of the bleb formed by the surgery and the intraocular pressure (IOP) would be followed for 28 days. Histological analysis of the scar tissue would be performed at the end of the study.

[2] = tested on: patients with medically uncontrolled open-angle glaucoma scheduled for a primary trabeculectomy; experiment: Clinical study of topical nintedanib 0.2% as adjunct therapy to trabeculectomy; format: in vivo, human
Source text: Topical nintedanib 0.2% as adjunct therapy to increase success of trabeculectomy in a clinical study. A randomized, double-masked, placebo-controlled, 12-month experimental trial to test the effects of topical nintedanib 0.2% on the success rate of trabeculectomy. The study design would be as described by Vandewalle et. al. (Vandewalle et. al. Br J Ophthalmol. 2014, January; 98(1):73-8).
Patients with medically uncontrolled open-angle glaucoma scheduled for a primary trabeculectomy would be enrolled and randomized to receive one drop TID of either nintedanib or placebo solutions. The treatment would start immediately after surgery and would last for a month. Approximately 150 patients would be enrolled in the study.
Surgeries would be performed under general or retrobulbar anaesthesia by experienced surgeons using a modified Moorfields technique. IOP would be measured by Goldmann applanation tonometry. Two measurements would be taken by masked observers and averaged to determine the mean IOP if two values were within 2 mm Hg. A third measurement would be taken if the difference between the first two determinations is >2 mm Hg.
Patients would be examined on day 1; at weeks 1, 2, and 4; and at months 3, 6, and 12 after trabeculectomy. […] The number of postoperative IOP-lowering medications, intra- and postoperative complications, and surgical interventions would also be recorded. […]

COC(=O)c1ccc2c(c1)NC(=O)/C2=C(\Nc1ccc(N(C)C(=O)CN2CCN(C)CC2)cc1)c1ccccc1 [nintedanib, Methyl (3Z)-3-{[(4-{methyl[(4-methylpiperazin-1-yl)acetyl]amino}phenyl)amino] (phenyl)methylidene}-2-oxo-2,3-dihydro-1H-indole-6-carboxylate]
bleb survival at end of study ([1]; day 28, no bleb would survive in the vehicle group): most of the bleb would survive | histological analysis of scar tissue at the surgical site ([1]; end of study, compared with vehicle group): less scar tissue | Surgery success outcome ([1]; nintedanib 0.2% solution TID for 2 weeks after surgery, compared with vehicle group): significantly prolonged | bleb survival (survival curve of the bleb after surgery, FIG. 2) ([1]; nintedanib 0.2% solution TID for 2 weeks, followed for 28 days, compared with vehicle group): substantially prolonged | IOP during the follow up period after the surgery (FIG. 3) ([1]; nintedanib 0.2% solution TID for 2 weeks, followed for 28 days, IOP increased gradually in vehicle group): below 20 mm | IOP compared to baseline ([2]; 12-month visit, one drop TID for a month after surgery): effectively reduced | absolute success rate of glaucoma surgery (FIG. 4) ([2]; vs the placebo group, differences statistically significant at time points after 6 months): higher
